Laboratory results reported in patent US9987321B2, “Use of flaxseed and flaxseed derivatives for treatment of neurological disorders and viral diseases” (The Trustees of the University of Pennsylvania, priority 2012, dated 2018).

Key:
[1] = Reducing power antioxidant assay; settings: compared to SDG
Procedure: The antioxidant activity SDG was determined by assessing its reducing power, an activity related to its ability to reduce an oxidized atom or molecule and compared with that of the natural antioxidants ascorbic acid and alpha-tocopherol (Panel A).

[2] = test system: nrf2-regulated protective enzymes; assay: qRT-PCR of antioxidant enzyme gene expression in brain tissues after oral SDG; type: in vivo, mice
Procedure: Indeed, the 1.0 mg dose was associated with a near 2-fold boost of hemeoxygenase 1 expression (HO-1) and quinone oxidoreductase 1 (NQO-1) expression in brain tissues (FIG. 14, Panel B).

[3] = DPPH free radical scavenging activity; settings: compared to ascorbic acid and alpha-tocopherol
[4] = test system: cortical rat neurons; assay: Neurotoxicity and oxidative stress (MAP2, DHE) from HIV-infected macrophage supernatants; type: cell-based
Procedure: Neurons (green) were pre-treated with 50 μM SDG 1 hour prior to exposure to HIV-infected macrophage supernatants (HIVMDM) at dilutions of 1:40 and 1:80. In the absence of SDG, there is marked reduction in MAP2 immunostaining (green) indicating neuronal damage and death (A). Labeling with dihydroethidium (red) indicates the presence of oxidative stress, which is apparent in HIVMDM treated cultures. Nuclei are labeled blue by DAPI. […] MAP2 levels are quantified in top graph (# p<0.01 compared to UT, * p<0.05 compared to respective HIV MDM). Oxidative stress (red-DHE) is quantified in bottom graph (# p<0.001, compared to HIVMDM1:40, p<0.05, compared to HIVMDM1:80, $ p<0.01 compared with UT.
Primary rat neuroglial cultures (FIG. 10, Panel A) and primary rat neuronal cultures (FIG. 10, Panel B) were treated with Supernatants from HIV-Infected macrophages (Jago) or Mock-infected macrophages (Mock) for 24 hours in the presence or absence of 25 or 50 μM SDG given 60 minutes prior to addition of the HIVMDM. Prior to fixation, cells were incubated with Dihydroethidium (DHE-red) for 30 minutes. Following fixation cells were stained for the neuronal specific marker MAP2 (green) and DAPI (blue). Representative images for each treatment are shown. DHE Fluorescence intensity was quantified from 6 fields for 3 slides per treatment, averaged, and normalized to the area of DAPI. Graphs of the average DHE staining intensity/DAPI area are plotted for each treatment group. The p values were generated using student's two-tailed t-test for equal variance. Bars on graphs represent median values of quantification by ImageJ algorithm. *P<0.05 vs Untreated (UT)-control group and Mock-control group; #P<0.05 vs Jago 1:40 treatment group. The results were obtained from at least three independent experiments.

[5] = test system: CXCR4; assay: Western blot of CXCR4 expression on MDM; type: cell-based
Procedure: (§1) The objective of this study was to elucidate the modulatory effects of flaxseed lignans on macrophage expression of coreceptors through western blotting.
Expression of HIV coreceptor CXCR4 on macrophage derived monocytes treated with SDG was evaluated. Following the same treatment protocol, MDM were treated with SDG for 0 and 6 hours. […] 25 μM to the 25 μM SDG treatment.

[6] = test system: HIV-1 jago; assay: HIV replication in monocyte-derived macrophages (RT activity, p24); type: cell-based; settings: for viral replication as indicated by RT activity / viral replication as indicated by p24 concentrations: primary human MDMs, 9 days post-infection, ritonavir 0.1 μM, SDG 50 μM
Procedure: Primary human MDMs were infected with an HIV isolated from the CSF of a patient with confirmed HAND yielding robust reverse transcriptase activity (A) and p24 concentrations (B) after 9 days post-infection. […] Results have been confirmed in 2 distinct donors, 1 donor is shown. Three technical replicates are analyzed for RT assays (n=3, * p<0.0001).
(§2) PBMCs can be prepared from laboratory donors. PBMCs are activated with […] phytohemagglutinin for 3 days, and infected with HIV-1 jago, a strain of HIV1 isolated from the CSF of a patient with HAD. On the day of infection, cultures is treated with SDG over a range of doses (0.1, 1, 10, 100 μM SDG), vehicle, or left untreated. Viral replication is assessed by p24 ELISA at 3, 6, 9, 12 and 15 days post-infection. Cell viability of infected PBMCs can be monitored by trypan blue exclusion and p24 levels are normalized to the number of viable cells. The experiment is repeated in 3 donors. MDMs can be prepared as described previously and infected with HIV-1 jago. On the day of inoculation with HIV-1 jago cultures can be treated with 0.1, 1, 10 and 100 μM SDG, vehicle or left untreated. Viral replication is assessed on days 3, 6, 9, 12, and 15 by p24 ELISA. Cell viability is determined by trypan blue exclusion and p24 levels is normalized to the number of viable cells. The experiment is replicated in 3 donors.
To assess this effect, primary peripheral blood monocytes were harvested from healthy donors and differentiated them into macrophages in vitro. Monocytes were infected with the primary HIV isolate, jago. One day after infection, macrophages were treated with 25 μM or 50 μM SDG, the antiretroviral compound ritonavir (0.1 μM RIT), SDG and ritonavir together, the ritonavir vehicle, DMSO, or with no additional treatment. Supernatant from these macrophages was harvested 3, 6, 9, 12, and 15 days post infection and assayed for HIV reverse transcriptase activity (FIG. 5A, bar graph and FIG. 5B, Line graph).

[7] = test system: Nrf2; assay: Endogenous antioxidant response expression by qRT-PCR and immunoblot; type: cell-based; settings: primary rat cortical neurons, SDG 50 μM, 2 or 48 hours
Procedure: Specifically, protein and RNA from primary rat cortical neurons treated with SDG at 50 μM or left untreated for 2 or 48 hours were analyzed for changes in expression of the endogenous antioxidant response by qRT-PCR and immunoblot.
Protein and RNA from primary rat cortical neurons treated with SDG at 50 μM or left untreated for 2 or 48 hours were analyzed for changes in expression of the endogenous antioxidant response by qRT-PCR and immunoblot.

[8] = at least 500 mg SDG/day for approximately 8 weeks; cited from earlier work
[9] = test system: rat cortical neuroglial cultures; assay: MTT viability, direct SDG treatment; type: cell-based; settings: 24 hours with SDG
Procedure: In order to assess the effects on SDG in terms of mitochondrial respiration as an indicator of viability, an MTT assay was performed with rat cortical neuroglial cultures that were treated for 24 hours with SDG.

[10] = SDG by oral gavage; cited from earlier work
[11] = test system: primary rat cortical neurons; assay: MAP2 cell-based ELISA of neuronal death and damage after ART compounds
Procedure: (§3) Relative neuronal damage as indicated by MAP2 cell-based ELISA in neurons treated with the indicated concentrations of ART compounds, ritonavir (RIT), Saquinavir (Sag), and Zidovudine (AZT). Cells were treated for 72 hours with ritonavir (10 μM or 25 μM), ritonavir (10 μM)+Saquinivir (1 μM), AZT (25 μM)+ritonavir+Saquinavir. One hour before and two hours after cART drug treatment, half of the wells of a 96 well plate of neuroglial cultures were also treated with secoisolariciresinol diglucoside (SDG) (25 μM, 50 μM, or 100 μM) where indicated. 72 hours later, a MAP2 cell-based ELISA assay was used to quantify neuronal death and damage. Untreated cultures in addition to vehicle (0.08% DMSO) treated cultures with and without SDG were used as controls. The value for untreated cultures was set to 100%, and SDG and cART treated bands are expressed as a percent change from untreated.
as §3, with “Cells” for “Relative neuronal damage as indicated by MAP2 cell-based ELISA in neurons treated with the indicated concentrations of ART compounds, ritonavir (RIT), Saquinavir (Sag), and Zidovudine (AZT). Cells”, “SDG” for “secoisolariciresinol diglucoside (SDG)”, “μM).” for “μM) where indicated.”

[12] = test system: brain derived neurotrophic factor (BDNF); settings: SDG by oral gavage; cited from earlier work
[13] = test system: rat neuronal cultures; assay: MTT viability, indirect treatment (media from SDG-treated macrophages); type: cell-based; settings: media from HIV-1 or Mock infected macrophages treated with SDG, 24 hours
Procedure: We performed a MTT (3-(4,5-dimethylthiazol-2-yl)-2,5-diphenyltetrazolium bromide) assay to measure the viability of cells through the production of insoluble formazan. […]. In these indirect studies media from HIV-1 infected or Mock infected macrophages treated with SDG was applied to neuronal cultures for 24 hours. Afterward cell viability was determined by the MTT assay which […] and is an indicator of mitochondrial activity. […] This study is a clear indicator of the non-neurotoxic effects of SDG in vitro.

[14] = test system: CCR5; assay: Western blot of CCR5 expression on MDM; type: cell-based; settings: SDG for 0 and 6 hours, time-dependent
Procedure: as §1
Expression of HIV co-receptor CCR5 on macrophage derived monocytes treated with SDG was evaluated. Following the same treatment protocol, MDM were treated with SDG for 0 and 6 hours.

[15] = test system: HIV-1 jago; assay: HIV replication in PBMCs (p24 ELISA); type: cell-based; settings: dose dependent manner; 0.1, 1, 10, 100 μM SDG
Procedure: as §2

[16] = test system: Nrf2/ARE; assay: Nrf2/ARE activation in non-neuronal cell types; type: cell-based; settings: lung epithelial, endothelial and fibroblasts
[17] = 1.0 mg SDG oral gavage once daily for 4 days, 4 hours post final feeding
[18] = 50 μM SDG 1 hour prior to HIVMDM 1:40 and 1:80

For Cc1c(C)c2c(c(C)c1O)CC[C@@](C)(CCC[C@H](C)CCC[C@H](C)CCCC(C)C)O2 [A-toc, alpha-tocopherol], the “concentration needed for half-maximal response (EC50) in reducing power, relative to SDG” value [1] was roughly 3 fold.
With O=C1O[C@H]([C@@H](O)CO)C(O)=C1O [AA, ascorbic acid] the “concentration needed for half-maximal response (EC50) in reducing power, relative to SDG” value [1] was roughly 3 fold.
In the case of COc1cc(C[C@@H](CO[C@@H]2O[C@H](CO)[C@@H](O)[C@H](O)[C@H]2O)[C@H](CO[C@@H]2O[C@H](CO)[C@@H](O)[C@H](O)[C@H]2O)Cc2ccc(O)c(OC)c2)ccc1O [SDG, secoisolariciresinol diglucoside], the “hemeoxygenase 1 (HO-1) expression in brain tissues” value [2, 17] is reported as roughly 2 fold, the “quinone oxidoreductase 1 (NQO-1) expression in brain tissues” value [2, 17] is reported as roughly 2 fold and the “crossing of the blood-brain barrier” value ([2]; SDG given orally to mice) is reported as “crosses the blood-brain barrier”. The “DPPH free radical scavenging activity” value [3] was “far superior antioxidant activity”, the “neuron loss (MAP2 immunostaining)” value [4, 18] was “protected against neuron loss” and the “oxidative stress by DHE” value [4, 18] was “reduced accumulation of oxidative stress”. The “protection from HIV-stimulated macrophage-induced neurotoxicity” value ([4]; 25 or 50 μM SDG 60 minutes prior to HIVMDM, 24 hours, presence or absence of glia) was “protects neurons”, the “DHE staining (free radical production) in HIV-Jago-treated neurons” value ([4]; presence and absence of glia) was “reduced DHE staining” and the “HIV coreceptor CXCR4 expression on MDM, dose dependence” value ([5]; 12 hour time point, 6. 25 μM to 25 μM SDG) was “dose-dependent decrease”. The “HIV coreceptor CXCR4 expression on MDM” value ([5]; between the 0 and 6 hour time points, time-dependent) was “significant decrease”, the “effect of SDG on ritonavir inhibition of HIV replication (reverse transcriptase activity)” value ([6]; 25 or 50 μM SDG with 0.1 μM ritonavir, 3-15 days post infection) was “did not block the ability of ritonavir to inhibit HIV replication” and the “HIV replication (reverse transcriptase activity), SDG without ritonavir” value ([6]; 25 or 50 μM SDG, 3-15 days post infection) was “blocked HIV replication”. For the same compound, the “viral replication in HIV-infected macrophages compared with ritonavir” value ([6]; FIG. 2) was “reduced viral replication to levels akin to the HIV protease inhibitor, ritonavir”, the “HIV replication in MDMs” value ([6]; dose dependent manner, 0.1, 1, 10, 100 μM SDG) was “attenuates HIV replication” and the “viral replication as indicated by RT activity” value [6] was “attenuated viral replication”. For the same compound, the “viral replication as indicated by p24 concentrations” value [6] was “attenuated viral replication”, the “induction of Nrf2 and its targets HO1, NQO1, GST1” value [7] was “induced Nrf2 in neurons, as well as its prominent targets: HO1, NQO1, and GST1” and the “effect on cardiovascular risk factors in humans” value [8] was “positive effect”. The “neuronal cell viability (MTT), direct treatment” value [9] was “no change in neuronal cell viability”, the “chronic stress as measured by immobility time induced by tail suspension stress” value [10] was “decreased chronic stress” and the “attenuation of neuronal damage in response to ART compounds” value ([11]; 25 μM SDG 1 hour prior to ART compounds alone or in combination) was “significantly attenuated neuronal damage”. For the same compound, the “reduction of ART-induced neuronal damage by combination therapy” value ([11]; SDG at 25 and 50 μM) was “reduced ART-induced neuronal damage”, the “cortex levels of brain derived neurotrophic factor (BDNF)” value [12] was “increase” and the “neuronal cell viability (MTT), indirect treatment” value [13] was “no change in neuronal cell viability”. For the same compound, the “HIV co-receptor CCR5 expression on MDM” value [14] was “significant decrease”, the “HIV replication in PBMCs” value [15] was “attenuates HIV replication” and the “activation of Nrf2/ARE, inducing NQO1 and HO1” value [16] was “activates the Nrf2/ARE”.
In the case of CC(C)c1nc(CN(C)C(=O)N[C@H](C(=O)N[C@@H](Cc2ccccc2)C[C@H](O)[C@H](Cc2ccccc2)NC(=O)OCc2cncs2)C(C)C)cs1 [ritonavir, reference compound], the “viral replication as indicated by RT activity” value [6] is reported as “attenuated viral replication” and the “viral replication as indicated by p24 concentrations” value [6] is reported as “attenuated viral replication”.
With CC(C)(C)NC(=O)[C@@H]1C[C@@H]2CCCC[C@@H]2CN1C[C@@H](O)[C@H](Cc1ccccc1)NC(=O)[C@H](CC(N)=O)NC(=O)c1ccc2ccccc2n1 [saquinavir, reference compound] the “neuronal damage as indicated by loss of MAP2 staining” value ([11]; ART compounds alone and in combinations, 72 hours) was “significant neuronal damage”.
